Legend:
Test in all cases: Cysteine liganding, probe competition
Format in all cases: binding
[1] = molecular target: T1, SNX8 Sorting nexin-8 (Homo sapiens, UniProt Q9Y5X2)
T1 construct: Cells were resuspended in cold PBS on ice and sonicated with a probe sonicator to achieve lysis; endogenous in cells
T1 sequence (Q9Y5X2 1-465): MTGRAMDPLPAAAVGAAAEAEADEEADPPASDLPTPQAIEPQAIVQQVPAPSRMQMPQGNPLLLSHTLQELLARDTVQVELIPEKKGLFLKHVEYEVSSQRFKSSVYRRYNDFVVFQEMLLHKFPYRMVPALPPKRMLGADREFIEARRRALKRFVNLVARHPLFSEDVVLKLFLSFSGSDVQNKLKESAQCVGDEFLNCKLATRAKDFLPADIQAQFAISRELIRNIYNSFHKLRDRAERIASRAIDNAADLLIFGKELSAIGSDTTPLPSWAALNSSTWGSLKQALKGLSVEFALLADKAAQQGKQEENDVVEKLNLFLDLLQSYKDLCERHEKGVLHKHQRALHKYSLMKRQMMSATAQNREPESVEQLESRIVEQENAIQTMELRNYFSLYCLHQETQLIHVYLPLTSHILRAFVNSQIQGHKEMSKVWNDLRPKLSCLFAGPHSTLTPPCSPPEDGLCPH
Summary of the method: (§1)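 Read-out is loss of desthiobiotin iodoacetamide labelling at cysteines, measured on streptavidin-enriched tryptic peptides. Compound preincubation ran 1 hr at 25° C in PBS lysate holding 5 mg/ml proteome before the probe was added.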

[2] = molecular target: T2, TBC1D15 TBC1 domain family member 15 (Homo sapiens, UniProt Q8TC07)
T2 construct: Cells were resuspended in cold PBS on ice and sonicated with a probe sonicator to achieve lysis; endogenous in cells
T2 sequence (Q8TC07 1-691): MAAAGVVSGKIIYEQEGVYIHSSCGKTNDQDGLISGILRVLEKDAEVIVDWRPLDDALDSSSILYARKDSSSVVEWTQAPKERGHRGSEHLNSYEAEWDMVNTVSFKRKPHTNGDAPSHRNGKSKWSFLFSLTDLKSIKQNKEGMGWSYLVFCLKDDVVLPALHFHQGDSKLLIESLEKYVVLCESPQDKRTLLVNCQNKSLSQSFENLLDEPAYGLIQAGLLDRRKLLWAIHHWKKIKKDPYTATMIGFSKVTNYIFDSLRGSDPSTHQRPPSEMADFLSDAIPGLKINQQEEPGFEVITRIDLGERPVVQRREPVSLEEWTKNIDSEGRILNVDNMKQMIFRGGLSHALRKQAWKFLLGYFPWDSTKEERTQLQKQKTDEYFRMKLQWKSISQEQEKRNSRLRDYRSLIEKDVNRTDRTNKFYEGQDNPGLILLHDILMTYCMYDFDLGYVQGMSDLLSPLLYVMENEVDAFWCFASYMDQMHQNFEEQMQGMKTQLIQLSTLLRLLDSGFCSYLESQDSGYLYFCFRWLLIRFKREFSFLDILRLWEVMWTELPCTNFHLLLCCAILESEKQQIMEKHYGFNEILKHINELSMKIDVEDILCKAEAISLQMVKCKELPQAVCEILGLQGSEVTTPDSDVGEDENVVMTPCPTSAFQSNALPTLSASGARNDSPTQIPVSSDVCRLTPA
Summary of the method: as §1

[3] = molecular target: T3, TUBA3D Tubulin alpha-3C/D chain (Homo sapiens, UniProt P0DPH8)
T3 construct: Cells were resuspended in cold PBS on ice and sonicated with a probe sonicator to achieve lysis; endogenous in cells
T3 sequence (P0DPH8 whole entry, looked up): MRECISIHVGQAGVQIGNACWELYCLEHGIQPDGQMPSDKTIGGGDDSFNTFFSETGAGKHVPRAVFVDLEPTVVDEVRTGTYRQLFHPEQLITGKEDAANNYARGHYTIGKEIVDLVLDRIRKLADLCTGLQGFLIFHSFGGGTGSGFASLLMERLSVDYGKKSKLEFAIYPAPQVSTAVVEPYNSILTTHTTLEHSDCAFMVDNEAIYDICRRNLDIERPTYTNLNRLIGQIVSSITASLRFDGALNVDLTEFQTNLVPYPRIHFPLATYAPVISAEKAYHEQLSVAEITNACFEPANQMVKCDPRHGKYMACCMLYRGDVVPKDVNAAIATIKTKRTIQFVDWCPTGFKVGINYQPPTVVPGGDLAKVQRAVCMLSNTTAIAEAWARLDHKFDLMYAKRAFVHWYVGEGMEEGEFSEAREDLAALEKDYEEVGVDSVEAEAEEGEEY
Summary of the method: as §1

[4] = molecular target: T4, MAPK10 Mitogen-activated protein kinase 10 (Homo sapiens, UniProt P53779); settings: for 100 Max / 100 ave / 500 ave / 500 Max: uniprot P53779; for 500 Max: in % (unit assumed)
T4 construct: Cells were resuspended in cold PBS on ice and sonicated with a probe sonicator to achieve lysis; endogenous in cells
T4 sequence (P53779 whole entry): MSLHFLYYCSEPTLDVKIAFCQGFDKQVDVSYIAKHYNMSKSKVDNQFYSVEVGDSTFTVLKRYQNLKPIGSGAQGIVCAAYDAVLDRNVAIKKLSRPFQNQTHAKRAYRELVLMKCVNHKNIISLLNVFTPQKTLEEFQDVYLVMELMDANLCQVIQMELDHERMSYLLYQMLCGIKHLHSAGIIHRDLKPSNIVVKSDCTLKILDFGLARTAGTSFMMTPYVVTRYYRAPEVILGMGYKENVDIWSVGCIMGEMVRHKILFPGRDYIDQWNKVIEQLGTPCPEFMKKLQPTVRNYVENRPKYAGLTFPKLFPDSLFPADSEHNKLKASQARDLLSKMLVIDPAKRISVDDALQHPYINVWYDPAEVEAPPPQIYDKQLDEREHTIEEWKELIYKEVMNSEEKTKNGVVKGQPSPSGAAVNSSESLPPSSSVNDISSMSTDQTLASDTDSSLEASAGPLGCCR
Summary of the method: as §1

[5] = molecular target: T5, SETD1A Histone-lysine N-methyltransferase SETD1A (Homo sapiens, UniProt O15047)
T5 construct: Cells were resuspended in cold PBS on ice and sonicated with a probe sonicator to achieve lysis; endogenous in cells
T5 sequence (O15047 whole entry): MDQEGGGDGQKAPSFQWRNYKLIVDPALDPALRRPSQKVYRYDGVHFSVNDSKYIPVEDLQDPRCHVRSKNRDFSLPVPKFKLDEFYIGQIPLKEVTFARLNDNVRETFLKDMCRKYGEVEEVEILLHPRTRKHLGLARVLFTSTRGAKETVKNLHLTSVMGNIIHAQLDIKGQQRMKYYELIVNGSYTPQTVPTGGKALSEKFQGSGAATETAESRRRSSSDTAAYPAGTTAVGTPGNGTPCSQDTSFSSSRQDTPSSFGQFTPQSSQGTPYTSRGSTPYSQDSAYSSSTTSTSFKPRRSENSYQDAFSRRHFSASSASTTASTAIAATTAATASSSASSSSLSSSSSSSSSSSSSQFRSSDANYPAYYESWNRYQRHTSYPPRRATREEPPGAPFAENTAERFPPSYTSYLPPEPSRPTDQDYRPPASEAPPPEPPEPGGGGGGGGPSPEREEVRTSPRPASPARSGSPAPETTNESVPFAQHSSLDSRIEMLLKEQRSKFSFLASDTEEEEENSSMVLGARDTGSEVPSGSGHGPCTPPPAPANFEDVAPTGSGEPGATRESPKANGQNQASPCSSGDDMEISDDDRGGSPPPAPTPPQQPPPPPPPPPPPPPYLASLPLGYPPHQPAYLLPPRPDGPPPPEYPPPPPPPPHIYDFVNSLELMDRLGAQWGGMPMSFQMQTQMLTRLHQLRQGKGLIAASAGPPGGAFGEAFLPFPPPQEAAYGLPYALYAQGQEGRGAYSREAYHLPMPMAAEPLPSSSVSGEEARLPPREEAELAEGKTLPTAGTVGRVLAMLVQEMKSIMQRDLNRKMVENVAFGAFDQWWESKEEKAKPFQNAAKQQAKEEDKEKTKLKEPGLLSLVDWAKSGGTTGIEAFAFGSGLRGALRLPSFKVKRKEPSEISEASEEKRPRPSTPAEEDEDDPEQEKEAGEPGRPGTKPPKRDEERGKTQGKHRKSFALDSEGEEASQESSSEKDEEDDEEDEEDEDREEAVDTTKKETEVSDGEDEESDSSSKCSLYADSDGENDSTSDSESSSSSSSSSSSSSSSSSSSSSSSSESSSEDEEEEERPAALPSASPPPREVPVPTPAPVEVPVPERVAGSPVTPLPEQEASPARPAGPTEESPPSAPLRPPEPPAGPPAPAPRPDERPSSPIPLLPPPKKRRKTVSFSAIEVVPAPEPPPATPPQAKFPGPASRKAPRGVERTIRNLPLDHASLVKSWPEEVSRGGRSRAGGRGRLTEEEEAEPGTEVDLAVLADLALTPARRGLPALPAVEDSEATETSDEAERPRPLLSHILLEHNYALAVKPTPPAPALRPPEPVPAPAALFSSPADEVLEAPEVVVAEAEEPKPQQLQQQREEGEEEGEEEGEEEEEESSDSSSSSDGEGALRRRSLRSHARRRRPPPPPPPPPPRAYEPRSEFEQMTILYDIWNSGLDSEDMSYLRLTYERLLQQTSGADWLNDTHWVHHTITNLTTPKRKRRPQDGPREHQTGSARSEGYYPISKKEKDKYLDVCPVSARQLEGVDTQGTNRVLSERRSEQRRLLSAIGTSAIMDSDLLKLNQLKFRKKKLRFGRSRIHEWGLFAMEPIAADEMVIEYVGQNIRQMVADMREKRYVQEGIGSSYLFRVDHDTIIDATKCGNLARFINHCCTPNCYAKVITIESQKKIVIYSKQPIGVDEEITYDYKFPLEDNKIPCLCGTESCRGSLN
Summary of the method: as §1

Q: How did the “100 Max” value ([1]; uniprot Q9Y5X2) turn out when O=C(CCl)Nc1cc(C(F)(F)F)cc(C(F)(F)F)c1 [KBO3] was run?
A: 36.21

Q: And the 100 ave ([1]; uniprot Q9Y5X2)?
A: 36.21

Q: What about the “100 Max” value ([2]; uniprot Q8TC07) of the same molecule?
A: 7.83

Q: What about the 100 ave ([2]; uniprot Q8TC07) of the same molecule?
A: 0.88

Q: What about the “500 Max” value ([2]; uniprot Q8TC07) of the same molecule?
A: 47.51

Q: And the 500 ave ([2]; uniprot Q8TC07)?
A: 47.51

Q: What about the Liganded ([3]; TUBA3D Res# 4, uniprot Q13748) of the same molecule?
A: YES

Q: And the Liganded ([3]; TUBA3D Res# 20, uniprot Q13748)?
A: YES

Q: What about the “100 Max” value [4] of the same molecule?
A: 17.22

Q: What about the 100 ave [4] of the same molecule?
A: 12.33

Q: And the 500 ave [4]?
A: 40.875

Q: And the “500 Max” value [4]?
A: 44.06

Q: And the “100 Max” value ([5]; uniprot O15047)?
A: 15.12

Q: And the 100 ave ([5]; uniprot O15047)?
A: −0.4575

Q: And the “500 Max” value ([5]; uniprot O15047)?
A: 40.15

Q: What about the 500 ave ([5]; uniprot O15047) of the same molecule?
A: 38.365

Q: What does the source list for COc1ccc2c(c1)CCCN2C(=O)CCl [KB02]?
A: Liganded ([1]; SNX8 Res# 200, uniprot Q9Y5X2): YES; Liganded ([2]; TBC1D15 Res# 24, uniprot Q8TC07): YES; Liganded ([3]; TUBA3D Res# 4, uniprot Q13748): YES; Liganded ([3]; TUBA3D Res# 20, uniprot Q13748): YES; Liganded ([4]; MAPK10 Res# 283, uniprot P53779): YES; 100 Max [4]: 44.42; 100 ave [4]: 26.11; 500 ave [4]: 76.89; 500 Max [4]: 78.63; Liganded ([5]; SETD1A Res# 1648, uniprot O15047): YES
